Measured values as given in article PMC10364322, “Evaluation of chronic drug-induced electrophysiological and cytotoxic effects using human-induced pluripotent stem cell-derived cardiomyocytes (hiPSC-CMs)” (Frontiers in Pharmacology, 2023).
Read-outs that look alike come from different tables or passages of the source.

What was measured:
[1] = free therapeutic Cmax in humans; ref FDA-approved drug packages, PharmaPendium; cited from earlier work
[2] = test system: caspases 3,7 in hiPSC-CMs; experiment: ApoLive-Glo Multiplex Assay: apoptosis, caspases 3,7 activation; type: cell-based, human
Procedure: (§1) iCell-Cardiomyocytes^2 (Fujifilm Cellular Dynamics Inc., Madison, WI, United States) were seeded into 96 well-plates (Greiner Bio One, ref. 655946) according to the manufacturer instructions, at a density of 50 k cells/well. […] To assess effects on viability and cytotoxicity, two assay combination kits were used: 1) RealTime-Glo™ Annexin V Apoptosis and Necrosis Assay [Promega, JA1011 ([Kupcho et al., 2019])] and 2) ApoLive-Glo Multiplex Assay [Promega, G6410 ([Flörkemeier et al., 2022])]. The assays were performed according to manufacturer instructions. The experiments were repeated at 24, 48, and 72 h in order to assess any time-dependent change in live cells or activation of cell-death pathways.
(§2) The nonparametric Wilcoxon-Mann Whitney Test was used to compare the percent change from the baseline (Δ%) value between the group treated with the compound at a given concentration and the group treated with the DMSO at each matching time points. A two-sided test at 5% significance level was considered. […] To assess the physiological relevance of changes, a tolerance interval of DMSO experiments was calculated at each time point, for each parameter. Specifically, the Δ% values of all (pooled) DMSO wells (N = 81) were used to obtain the non-parametric 80%–95% (p = 0.80 & 1-α = 0.95) tolerance interval (TI). TIs indicate an interval where, with a certain confidence level (1- α = 0.95), a specified proportion (p = 0.80) of percent change for DMSO data falls. The lower and upper limits based on the TI values were used as cut-offs for the interpretation of the changes. For the cytotoxicity assays, measurements of fluorescence (after background fluorescence subtraction) from wells treated with the compounds were normalized by the average value of vehicle experiments (DMSO 0.1%) to obtain a DMSO-corrected, delta/delta percent change. Experiments from each condition, as delta/delta percent, were averaged and expressed as mean ± SD. Statistical analysis was performed using a non-parametric test (Kruskal-Wallis) and each treatment condition was compared to the relative DMSO 0.1%. Differences were considered statistically significant when the p-value was smaller than 0.05.

[3] = test system: hiPSC-CMs (iCell-Cardiomyocytes^2); experiment: MEA impedance (cytotoxicity readout) in hiPSC-CMs
[4] = test system: Annexin V activation in hiPSC-CMs; type: cell-based; settings: for Annexin V (apoptosis activation), Mean±SD: 0.3 µM
Procedure: The assays were performed according to manufacturer instructions.
as §2, with “Specifically, the Δ% values of all (pooled) DMSO wells (N = 81) were used to obtain the non-parametric 80%–95% (p = 0.80 & 1-α = 0.95) tolerance interval (TI).” left out

[5] = test system: hiPSC-CMs (iCell-Cardiomyocytes^2); experiment: RealTime-Glo Annexin V Apoptosis and Necrosis Assay: necrosis; type: cell-based, human
Procedure: as §1, §2

[6] = test system: hiPSC-CMs (iCell-Cardiomyocytes^2); experiment: ApoLive-Glo Multiplex Assay: viability (live cells); type: cell-based, human
Procedure: as §1, §2

C[C@H](CS)C(=O)N1CCC[C@H]1C(=O)O [Captopril]
Free Cmax [1]: 2.3 µM | Caspases 3, 7 (apoptosis activation), Mean±SD ([2]; 10 µM, 24h): -6.9±11.1 Δ/Δ% | Caspases 3, 7 (apoptosis activation), Mean±SD ([2]; 10 µM, 48h): -3±10.7 Δ/Δ% | Caspases 3, 7 (apoptosis activation), Mean±SD ([2]; 10 µM, 72h): -3.6±5 Δ/Δ% | Imp (impedance), % change from baseline ([3]; 1 µM, 2h): 7±5% | Imp (impedance), % change from baseline ([3]; 1 µM, 24h): -7±1% | Imp (impedance), % change from baseline ([3]; 1 µM, 48h): -9±4% | Imp (impedance), % change from baseline ([3]; 1 µM, 72h): -2±3% | Imp (impedance), % change from baseline ([3]; 1 µM, 96h): -4±5% | Imp (impedance), % change from baseline ([3]; 3 µM, 72h): 1±4% | Imp (impedance), % change from baseline ([3]; 3 µM, 96h): -1±4% | Imp (impedance), % change from baseline ([3]; 3 µM, 2h): 9±3% | Imp (impedance), % change from baseline ([3]; 3 µM, 24h): -6±3% | Imp (impedance), % change from baseline ([3]; 3 µM, 48h): -7±4% | Imp (impedance), % change from baseline ([3]; 10 µM, 2h): 9±3% | Imp (impedance), % change from baseline ([3]; 10 µM, 24h): -5±3% | Imp (impedance), % change from baseline ([3]; 10 µM, 48h): -10±5% | Imp (impedance), % change from baseline ([3]; 10 µM, 72h): -1±5% | Imp (impedance), % change from baseline ([3]; 10 µM, 96h): -4±5% | Imp (impedance), % change from baseline ([3]; 30 µM, 2h): 8±2% | Imp (impedance), % change from baseline ([3]; 30 µM, 24h): -4±3% | Imp (impedance), % change from baseline ([3]; 30 µM, 48h): -8±2% | Imp (impedance), % change from baseline ([3]; 30 µM, 72h): 1±5% | Imp (impedance), % change from baseline ([3]; 30 µM, 96h): -4±6% | effect on impedance ([3]; all concentrations tested, up to 96 h): did not have a significant effect on impedance | apoptosis activation ([4]; 24, 48, 72 h): did not display any significant changes in necrosis or apoptosis activation | Necrosis, Mean±SD ([5]; 10 µM, 24h): 21.5±33.7 Δ/Δ% | Necrosis, Mean±SD ([5]; 10 µM, 48h): -8.1±21.1 Δ/Δ% | Necrosis, Mean±SD ([5]; 10 µM, 72h): 13.9±44.2 Δ/Δ% | necrosis activation ([5]; 24, 48, 72 h): did not display any significant changes in necrosis or apoptosis activation | Live Cells (viability), Mean±SD ([6]; 10 µM, 24h): -8.4±17.4 Δ/Δ% | Live Cells (viability), Mean±SD ([6]; 10 µM, 48h): -9.1±9.5 Δ/Δ% | Live Cells (viability), Mean±SD ([6]; 10 µM, 72h): 2.4±8.5 Δ/Δ% | number of live cells ([6]; any of the time points (24, 48, 72 h)): did not show any significant change in live cell number

COc1cccc2c1C(=O)c1c(O)c3c(c(O)c1C2=O)C[C@@](O)(C(=O)CO)C[C@@H]3O[C@H]1C[C@H](N)[C@H](O)[C@H](C)O1 [Doxorubicin]
Free Cmax [1]: 7.4 µM | Caspases 3, 7 (apoptosis activation), Mean±SD ([2]; 0.3 µM, 24h): 0.6±15.9 Δ/Δ% | Caspases 3, 7 (apoptosis activation), Mean±SD ([2]; 0.3 µM, 48h): 109.5±125.1 Δ/Δ% | Caspases 3, 7 (apoptosis activation), Mean±SD ([2]; 10 µM, 72h): 113±14.3 Δ/Δ% | activation of caspases 3,7 (apoptosis) ([2]; 24, 48, 72 h): induced the largest activation of caspases 3,7 | Imp (impedance), % change from baseline ([3]; 0.1 µM, 2h): 3±5% | Imp (impedance), % change from baseline ([3]; 0.1 µM, 24h): -8±5% | Imp (impedance), % change from baseline ([3]; 0.1 µM, 48h): -20±4% | Imp (impedance), % change from baseline ([3]; 0.1 µM, 72h): -27±4% | Imp (impedance), % change from baseline ([3]; 0.1 µM, 96h): -30±8% | Imp (impedance), % change from baseline ([3]; 0.3 µM, 2h): -1±1% | Imp (impedance), % change from baseline ([3]; 0.3 µM, 24h): -23±6 % | Imp (impedance), % change from baseline ([3]; 0.3 µM, 48h): -47±6 % | Imp (impedance), % change from baseline ([3]; 0.3 µM, 72h): -70±7 % | decrease in the impedance signal ([3]; 0.3 µM, 72h): ~70% | Imp (impedance), % change from baseline ([3]; 0.3 µM, 96h): -81±7 % | Imp (impedance), % change from baseline ([3]; 1 µM, 2h): -1±2% | Imp (impedance), % change from baseline ([3]; 1 µM, 24h): -56±4 % | Imp (impedance), % change from baseline ([3]; 1 µM, 48h): -86±1 % | Imp (impedance), % change from baseline ([3]; 1 µM, 72h): -89±2 % | Imp (impedance), % change from baseline ([3]; 1 µM, 96h): -89±2 % | Imp (impedance), % change from baseline ([3]; 3 µM, 72h): -87±0 % | Imp (impedance), % change from baseline ([3]; 3 µM, 96h): -88±1 % | Imp (impedance), % change from baseline ([3]; 3 µM, 2h): -2±0% | Imp (impedance), % change from baseline ([3]; 3 µM, 24h): -56±5 % | Imp (impedance), % change from baseline ([3]; 3 µM, 48h): -85±2 % | Annexin V (apoptosis activation), Mean±SD ([4]; 24h): 24.6±24 Δ/Δ% | Annexin V (apoptosis activation), Mean±SD ([4]; 48h): 31.2±28.5 Δ/Δ% | activation of Annexin V (apoptosis) ([4]; 24, 48, 72 h): largest activation of caspases 3,7, and of Annexin V | Necrosis, Mean±SD ([5]; 0.3 µM, 24h): 9.8±45.2 Δ/Δ% | Necrosis, Mean±SD ([5]; 0.3 µM, 48h): 40.2±103.1 Δ/Δ% | Necrosis, Mean±SD ([5]; 1 µM, 24h): 9.8±27 Δ/Δ% | Necrosis, Mean±SD ([5]; 1 µM, 48h): 72.9±120.4 Δ/Δ% | activation of necrosis ([5]; over time, especially at 72 h): also showed the activation of necrosis | Live Cells (viability), Mean±SD ([6]; 0.3 µM, 24h): -7.1±16.9 Δ/Δ% | Live Cells (viability), Mean±SD ([6]; 0.3 µM, 48h): -9±11.9 Δ/Δ% | drop in live cells assay ([6]; 0.3 µM, 72h): ~40% | Live Cells (viability), Mean±SD ([6]; 1 µM, 24h): -10.5±16.2 Δ/Δ% | number of live cells ([6]; 10 µM, 24, 48, 72 h): strong impact on the number of live cells, further decreasing over time
